Laboratory results as given in a melting point compilation (Tetko et al.; mined from patent text by program, amines drawn as free bases though some values may be those of a salt).

| SMILES | melting point [°C] |
| --- | --- |
| Cc1ccc(S(=O)(=O)OCCc2cc3ccccc3o2)cc1 | 195 to 197 |
| COC(=O)[C@H]1C[C@H](NC(=O)c2cccc(CNC(=O)OC(C)(C)C)c2)c2c(Cl)cc(Cl)cc2N1 (relative stereo) | 222 to 223 |
| COc1cc2nc(NC3CCC(N(C)C)CC3)c(-c3ccccn3)nc2cc1OC (configuration not stated) | 168 to 171 |
| CC(C)(C)c1ccc(CSc2nc3cnccc3[nH]2)cc1 | 207 to 208 |
| CCCOc1c(Cl)cc(Cl)c2c(=O)c3ccccc3sc12 | 104 to 105 |
| N#Cc1cc(N)cc([N+](=O)[O-])c1 | 168 to 170 |
| CCc1cc2[nH]c(=O)c(-c3ccccc3)cc2c(CC)n1 | > 260 |
| O=C1NC(=S)NC1Cc1c[nH]c2ccccc12 (configuration not stated) | 206 to 210 |
| CC1CCCC(C)N1CCCC(O)(c1ccccc1)c1ccccc1 (configuration not stated) | 90 to 91 |
| CCOc1nn(Cc2ccc(OCCn3ncc4ccccc4c3=O)cc2)cc1CCC(=O)O | 152 to 153 |
| NS(=O)(=O)c1ccc(S(=O)(=O)N2CCC(=O)CC2)cc1Cl | 195 to 196 |
| CC1(C)CCCC(C)(C)N1c1nc(NCCO)nc(NCCO)n1 | 147 to 148 |
| Cn1cc(C(=O)NCc2ccc(Cl)cc2)c(=O)c2cc(CN3CCOCC3)cc(C#Cc3ccccn3)c21 | 234 to 236 |
| Nc1nc2ccc(Cc3cccs3)cc2s1 | 188 to 191 |
| Cc1cc2c(cc1Cl)CCN2C(=O)Nc1cccnc1 | 217 to 218 |
| COc1cccc2c1OC1C=CC=C3C(=O)N(CC4CC4)C(=O)CC321 (configuration not stated) | 166 to 167 |
| COc1ccc(CN(CCN(C)CCCCNC(=O)NCCSCc2csc(NC(=N)N)n2)c2ccccn2)cc1 | 104 to 106 |
| O=CNCN1CCCCCC1=O | 48 |
| NS(=O)(=O)c1ccc([C@H]2[C@H](C(=O)Nc3ccc(C(F)(F)F)cc3)C23CCCC3)cc1 (relative stereo) | 234 to 236 |
| O=S(=O)(Cl)c1cc(S(=O)(=O)Cl)c(Cl)cc1Cl | 104 |
| O=C(O)c1ccc(OCc2ccccc2)c(Cl)c1 | 211 to 213 |
| CSc1nc(C)ccc1NC(=O)CCCCCBr | 98 to 99 |
| O=c1nc2c(c3ncnn13)=NC(c1ccccc1)=N2 | > 300 |
| CCCc1ccc(S(=O)(=O)Nc2ccc3nc(C)oc3c2)cc1 | 102 |

| SMILES | melting point [°C] |
| --- | --- |
| O=C1CC(C(F)(F)F)CC(=O)N1c1ccc(Br)cc1 | 163 to 164 |
| Cn1c(-c2ccccc2)nc(CN2CCN(c3ccc(O)cc3)CC2)cc1=O | 206 to 207 |
| CC(C)(C)OC(=O)Nc1ccc(C#Cc2ccccc2)cc1[N+](=O)[O-] | 146 to 148 |
| O=C1CCC(CCC(=O)OCc2ccc(C(F)(F)F)cc2)N1 (configuration not stated) | 81 to 82 |
| COC(=O)C1CN(Cc2ccccc2)c2ccccc2CN1S(=O)(=O)c1ccc(OC)cc1 (configuration not stated) | 120 to 122 |
| NC(=S)c1cn(C2OC(CO)C(O)C2O)nn1 (configuration not stated) | 152 to 154 |
| Nc1cc(-n2nnn(CCCF)c2=O)c(F)cc1Cl | 84 |
| CC(C)COC(=O)N[C@@H](Cc1ccc2ccccc2c1)C(=O)CSCc1ccco1 | 84 to 87 |
| COc1cc(C=C(C=O)C(C=O)=Cc2ccc(OC(C)C)c(OC)c2)ccc1OC(C)C | 119 to 120 |
| Cc1nn(-c2c(Cl)cc(C(F)(F)F)cc2Cl)c(C)c1-c1nc(C#N)c(C#N)[nH]1 | 80 to 83 |
| COCc1nc(C(C)(C)O)c(C(=O)OCOC(=O)C(C)(C)C)n1Cc1ccc(-c2ccccc2-c2nnn[nH]2)cc1 | 71 to 72 |
| CCC1(O)CCC2C3=C(CCC21C)c1ccc(OC)cc1CC3 (configuration not stated) | 105 to 120 |
| CC(C(=O)O)c1c(C(=O)c2ccccc2)[nH]c2cc(Cl)ccc12 (configuration not stated) | 193 to 196 |
| CC1c2cccc3c2N(CC3)c2ccccc2N1C(=O)CCN1CCN(c2ccccc2)CC1 (configuration not stated) | 139 to 141 |
| C=C(C)C(=O)OCCOC(Cl)C(Cl)(Cl)Cl (configuration not stated) | 44 to 45 |
| COc1ccn2c(Cl)c(CCc3ccc4nc(N)oc4c3)nc2c1 | 225 to 227 |
| Cc1ccc(NC=CS(=O)(=O)F)cc1 | 61 to 65 |
| CN1c2ccc([N+](=O)[O-])cc2CS1(=O)=O | 214 to 216 |
| CC(C)C[C@H](NS(=O)(=O)c1cccc2ccccc12)C(=O)N[C@H]1CCCOC1O (some centres not stated) | 159 to 161 |
| CC(=O)OC1CCC2(C)C(CCC3C4CC(C)=C(C(C)=O)C4(C)CC(=O)C32)C1 (configuration not stated) | 200 to 208 |
| CC1(Cc2ccccc2)OC(=O)Nc2ccc(-c3cccc(Cl)c3)cc21 (configuration not stated) | 187 to 188 |
| COc1ccc(-c2sc3cccnc3c2OC(C)=O)cc1 | 146 to 148 |
| COc1cc2c3c(cccc3c1)C(=O)c1c(O)cccc1-2 | 207 to 208 |
| OCC=C(c1ccc(I)cc1)c1ccc(I)cc1 | 83 to 85 |

| SMILES | melting point [°C] |
| --- | --- |
| NC(=O)c1nnsc1Nc1ccccc1 | 195 to 197 |
| CCOC(=O)c1nc2sc([N+](=O)[O-])c(C)c2c(=O)[nH]1 | 229 to 230 |
| CN(C)CCCn1c2ccc(O)cc2c2c3c(c(-c4ccccc4)cc21)C(=O)NC3=O | 185 to 189 |
| COc1cc(C=CNC(C)=O)ccc1OCC1CO1 (configuration not stated) | 173 to 174 |
| Clc1ccc2c(c1)C1(CN3CCC(Nc4ncccn4)CC3)CC2c2ccccc21 (configuration not stated) | 212 to 214 |
| NC(=O)CC1CN(Cc2ccccc2)CCN1Cc1ccccc1 (configuration not stated) | 114 |
| CC(=O)OCC12CCC(OC(C)=O)CC1CC=C1C2CCC2(C)C(OC(=O)C(C)(C)C)CCC12O (configuration not stated) | 141 to 142 |
| CCOC(=O)NN=C(c1ccc(Cl)cc1)c1ccc(CS(C)=O)cc1 (configuration not stated) | 65 to 70 |
| COc1cc(OC)cc(N2Cc3cnc(SC)nc3N=C2N)c1 | 198 to 204 |
| CCOC(=O)c1cc2ccccc2[nH]c1=O | 160 to 163 |
| Cc1ccc(C(=O)c2ccc(CC(=O)O)n2C)s1 | 152 to 154 |
| c1cc(-c2ccc3[nH]cc4c3c2C[C@@H](N(CC2CC2)CC2CC2)C4)on1 | 146 to 147 |
| Cc1cccc(NC(=O)c2ccccc2CN2C(=O)C3(COc4cc5c(cc43)CCO5)c3ccccc32)c1C (configuration not stated) | > 230 |
| Cn1ncc(SCc2ccccc2)c(Br)c1=O | 118 to 121 |
| COC(=O)c1cccc(S(=O)(=O)N(C)C)c1CS(=O)(=O)NC(=O)Nc1nc(OC)cc(OC)n1 | 175 to 180 |
| O=c1[nH]cnc2c(Br)c(Cl)sc12 | > 280 |
| COc1cc(C(=O)c2c(C)c(C(=O)O)c3ccccn23)ccc1[N+](=O)[O-] | 215 |
| CC(Cc1c[nH]c2ccccc12)C1=CCNCC1 (configuration not stated) | 125 |
| O=C(O)c1ccc(O)c(NC(=O)C(CS)Cc2ccccc2)c1 (configuration not stated) | 226 to 227 |
| CCc1cc(-c2cccnc2)nn1-c1ccc(NC(=O)c2cccnc2)cc1 | 188 to 190 |
| COC(=O)c1ccc(-c2ccc(-c3ccccc3)c(-c3ccc4c(c3)C(C)(C)CCC4(C)C)c2)cn1 | 160 to 162 |
| O=C(O)[C@H]1CCC(=O)[C@@H](n2nc(-c3c(-c4ccccc4)nn4ccccc34)ccc2=O)C1 (relative stereo) | 155 to 165 |
| Cc1cc(NC(=O)Cc2ccccc2C(F)(F)F)cc(C)c1S(=O)(=O)C[N+](=O)[O-] | 203 to 204 |
| Oc1ccccc1-c1cccnc1 | 185 |
